Activity calls are given as the source filed them. The calls are words filed in the database; no cut-off is given here.
What was measured:
[1] = target: T1, Proteasome component C5 (Homo sapiens) (UniProt P20618); assay: Inhibition of 26S proteasome beta 1 in human HEK293 cell lysate assessed as residual activity at 0.006 uM after 1 hr; type: cell-free
T1 sequence (whole entry): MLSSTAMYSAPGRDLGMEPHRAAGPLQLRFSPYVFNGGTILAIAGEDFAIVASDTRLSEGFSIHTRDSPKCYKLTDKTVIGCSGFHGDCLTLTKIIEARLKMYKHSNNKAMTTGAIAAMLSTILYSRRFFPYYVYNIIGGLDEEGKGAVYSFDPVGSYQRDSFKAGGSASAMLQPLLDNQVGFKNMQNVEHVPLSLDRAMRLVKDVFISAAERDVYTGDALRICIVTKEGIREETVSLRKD

[2] = target: T1, Proteasome component C5 (Homo sapiens); assay: Inhibition of 26S proteasome beta 1 in human HEK293 cell lysate assessed as residual activity at 0.002 uM after 1 hr; type: cell-free
[3] = target: Proteasome Macropain subunit (Homo sapiens) (UniProt P49721); assay: Inhibition of 26S proteasome beta 2 in human HEK293 cell lysate assessed as residual activity at 0.167 uM after 1 hr; type: cell-free
Sequence of Proteasome Macropain subunit (Homo sapiens) (P49721 whole entry): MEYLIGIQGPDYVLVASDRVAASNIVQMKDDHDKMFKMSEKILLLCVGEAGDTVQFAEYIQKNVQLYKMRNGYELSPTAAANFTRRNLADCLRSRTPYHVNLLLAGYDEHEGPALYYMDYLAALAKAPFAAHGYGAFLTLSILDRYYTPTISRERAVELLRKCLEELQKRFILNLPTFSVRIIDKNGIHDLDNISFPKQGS

[4] = target: T1, Proteasome component C5 (Homo sapiens); assay: Inhibition of 26S proteasome beta 1 in human HEK293 cell lysate assessed as residual activity at 13.5 uM after 1 hr; type: cell-free
[5] = target: Proteasome Macropain subunit (Homo sapiens) (UniProt P49721); assay: Inhibition of 26S proteasome beta 2 in human HEK293 cell lysate assessed as residual activity at 0.5 uM after 1 hr; type: cell-free
[6] = target: Proteasome subunit beta type-5 (Homo sapiens) (UniProt P28074); assay: Inhibition of 26S proteasome beta 5 in human HEK293 cell lysate assessed as residual activity at 0.002 uM after 1 hr
[7] = target: Proteasome subunit beta type-5 (Homo sapiens) (UniProt P28074); assay: Inhibition of 26S proteasome beta 5 in human HEK293 cell lysate assessed as residual activity at 0.001 uM after 1 hr
[8] = target: Proteasome Macropain subunit (Homo sapiens) (UniProt P49721); assay: Inhibition of 26S proteasome beta 2 in human HEK293 cell lysate assessed as residual activity at 0.006 uM after 1 hr; type: cell-free
[9] = target: Proteasome Macropain subunit (Homo sapiens) (UniProt P49721); assay: Inhibition of 26S proteasome beta 2 in human HEK293 cell lysate assessed as residual activity at 13.5 uM after 1 hr; type: cell-free
[10] = target: Proteasome Macropain subunit (Homo sapiens) (UniProt P49721); assay: Inhibition of 26S proteasome beta 2 in human HEK293 cell lysate assessed as residual activity at 0.001 uM after 1 hr; type: cell-free
[11] = target: T1, Proteasome component C5 (Homo sapiens); assay: (§1) Inhibition of 26S proteasome beta 1 in human HEK293 cell lysate assessed as residual activity at […] after 1 hr; type: cell-free
[12] = target: Proteasome Macropain subunit (Homo sapiens) (UniProt P49721); assay: (§2) Inhibition of 26S proteasome beta 2 in human HEK293 cell lysate assessed as residual activity at […] after 1 hr; type: cell-free
[13] = target: Proteasome Macropain subunit (Homo sapiens) (UniProt P49721); assay: as §2; type: cell-free; remark: listed apart in the source
[14] = target: T1, Proteasome component C5 (Homo sapiens); assay: Displacement of fluorescent labeled MV151 from 26S proteasome beta 1 in human HEK293 cell lysate assessed as disappearance of band at 0.1 to 1 uM after 1 hr by SDS-PAGE; type: cell-free
[15] = target: T1, Proteasome component C5 (Homo sapiens); assay: Inhibition of 26S proteasome beta 1 in human HEK293 cell lysate assessed as residual activity at 1.5 uM after 1 hr; type: cell-free
[16] = target: Proteasome subunit beta type-5 (Homo sapiens) (UniProt P28074); assay: Inhibition of 26S proteasome beta 5 in human HEK293 cell lysate assessed as residual activity at […] after 1 hr
[17] = target: T1, Proteasome component C5 (Homo sapiens); assay: Inhibition of 26S proteasome beta 1 in human HEK293 cell lysate assessed as residual activity at 0.167 uM after 1 hr; type: cell-free
[18] = target: Proteasome subunit beta type-5 (Homo sapiens) (UniProt P28074); assay: Inhibition of 26S proteasome beta 5 in human HEK293 cell lysate assessed as residual activity at 0.019 uM after 1 hr
[19] = target: Proteasome subunit beta type-5 (Homo sapiens) (UniProt P28074); assay: Inhibition of 26S proteasome beta 5 in human HEK293 cell lysate assessed as residual activity at 0.006 uM after 1 hr
[20] = target: Proteasome Macropain subunit (Homo sapiens) (UniProt P49721); assay: Inhibition of 26S proteasome beta 2 in human HEK293 cell lysate assessed as residual activity at 0.002 uM after 1 hr; type: cell-free
[21] = target: T1, Proteasome component C5 (Homo sapiens); assay: as §1; type: cell-free; remark: listed apart in the source
[22] = target: Proteasome subunit beta type-5 (Homo sapiens) (UniProt P28074); assay: Inhibition of 26S proteasome beta 5 in human HEK293 cell lysate assessed as residual activity at 1.5 uM after 1 hr
[23] = target: Proteasome subunit beta type-5 (Homo sapiens) (UniProt P28074); assay: Inhibition of 26S proteasome beta 5 in human HEK293 cell lysate assessed as residual activity at 0.5 uM after 1 hr
[24] = target: Proteasome subunit beta type-5 (Homo sapiens) (UniProt P28074); assay: Inhibition of 26S proteasome beta 5 in human HEK293 cell lysate assessed as residual activity at […] after 1 hr; remark: listed apart in the source
[25] = target: T1, Proteasome component C5 (Homo sapiens); assay: Inhibition of 26S proteasome beta 1 in human HEK293 cell lysate assessed as residual activity at 0.001 uM after 1 hr; type: cell-free
[26] = target: T1, Proteasome component C5 (Homo sapiens); assay: Inhibition of 26S proteasome beta 1 in human HEK293 cell lysate assessed as residual activity at 0.019 uM after 1 hr; type: cell-free
[27] = target: Proteasome subunit beta type-5 (Homo sapiens) (UniProt P28074); assay: Inhibition of 26S proteasome beta 5 in human HEK293 cell lysate assessed as residual activity at 0.167 uM after 1 hr
[28] = target: T2, Proteasome Macropain subunit MB1 (Homo sapiens) (UniProt P28074); assay: Displacement of fluorescent labeled MV151 from 26S proteasome beta 5 in human HEK293 cell lysate assessed as disappearance of band at 0.1 to 1 uM after 1 hr by SDS-PAGE; type: cell-free
T2 sequence (whole entry): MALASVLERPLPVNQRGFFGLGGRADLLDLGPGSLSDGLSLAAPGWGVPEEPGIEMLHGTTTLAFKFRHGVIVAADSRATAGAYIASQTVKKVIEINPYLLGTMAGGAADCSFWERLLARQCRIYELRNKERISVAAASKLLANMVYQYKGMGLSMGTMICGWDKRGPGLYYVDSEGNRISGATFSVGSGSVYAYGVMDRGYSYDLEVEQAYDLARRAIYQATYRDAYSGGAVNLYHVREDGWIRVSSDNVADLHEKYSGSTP

[29] = target: Proteasome Macropain subunit (Homo sapiens) (UniProt P49721); assay: Inhibition of 26S proteasome beta 2 in human HEK293 cell lysate assessed as residual activity at 1.5 uM after 1 hr; type: cell-free
[30] = target: T1, Proteasome component C5 (Homo sapiens); assay: Inhibition of 26S proteasome beta 1 in human HEK293 cell lysate assessed as residual activity at 0.5 uM after 1 hr; type: cell-free
[31] = target: Proteasome Macropain subunit (Homo sapiens) (UniProt P49721); assay: Inhibition of 26S proteasome beta 2 in human HEK293 cell lysate assessed as residual activity at 0.019 uM after 1 hr; type: cell-free
[32] = target: Proteasome subunit beta type-5 (Homo sapiens) (UniProt P28074); assay: Inhibition of 26S proteasome beta 5 in human HEK293 cell lysate assessed as residual activity at 13.5 uM after 1 hr

Activity [1]: 93.2% | Activity [2]: 102% | Activity [3]: 94.3% | Activity [4]: 0.5% | Activity [5]: 103% | Activity [6]: 41.3% | Activity [7]: 35.5% | Activity [8]: 109% | Activity [9]: 38.5% | Activity [10]: 100% | Activity [11]: 1.1% | Activity [12]: 122% | Activity [13]: 63.7% | Activity [14]: Active | Activity [15]: 3.1% | Activity [16]: 14.3% | Activity [17]: 45.2% | Activity [18]: 21.2% | Activity [19]: 23.3% | Activity [20]: 93.1% | Activity [21]: 79.1% | Activity [22]: 5.4% | Activity [23]: 7.7% | Activity [24]: 2.7% | Activity [25]: 99.9% | Activity [26]: 92.3% | Activity [27]: 8.8% | Activity [28]: Active | Activity [29]: 78.5% | Activity [30]: 17% | Activity [31]: 118% | Activity [32]: 0.7%
SMILES: CC(C)C[C@H](NC(=O)[C@H](Cc1cc(C(F)(F)F)cc(C(F)(F)F)c1)NC(=O)c1cnccn1)B1OC2C[C@@H]3C[C@@H](C3(C)C)[C@]2(C)O1 (some centres not stated)
